One assay deals with AsPC-1. As to the kind of experiment: Cell growth inhibition assay (AsPC-1). As to conditions: Homo sapiens, ASPC1, 144 h; AsPC-1, 6 days incubation, CellTiter-Glo. Type of assay: cell-based. How it is done:
4. Cell Growth Inhibition Assay
AsPC-1 cultured in RPMI-1640 medium (Gibco) containing 10% fetal bovine serum (Gibco). Cells in culture medium were plated in 96-well plates at a concentration of 1000 cells/well ([…]) and allowed to attach overnight.
The next day, compounds were diluted in culture medium and added to the plates. After 6 days incubation in a 37° C./5% CO2 cell incubator, the cell viability was detected by CellTiter-Glo® Luminescent Cell Viability Assay kit (Promega). Luminescent signals were read on Tecan Spark multimode microplate reader and analyzed using a 4-parameter logistic model to calculate IC50 values.
Background: In ATP-based viability assays light output follows the ATP content of the culture.

Assay [1] deals with T1, GDP-loaded HIS-KRAS (G12D, aa 1-169) (Homo sapiens, UniProt P01116, G12D).
T1 construct: GDP-loaded HIS-KRAS (G12D, aa 1-169)
T1 sequence (P01116 1-169 isoform P01116-2 G12D): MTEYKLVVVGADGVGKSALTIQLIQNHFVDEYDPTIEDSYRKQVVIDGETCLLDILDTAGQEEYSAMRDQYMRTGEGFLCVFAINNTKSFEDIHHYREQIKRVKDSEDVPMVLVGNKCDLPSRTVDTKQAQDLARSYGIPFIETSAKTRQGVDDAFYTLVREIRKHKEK
As to the kind of experiment: SOS1 catalyzed nucleotide exchange assay. Format: biochemical. Particulars: SOS1 ExD, TR-FRET, 4 hours at 25° C. How it is done: 1. SOS1 Catalyzed Nucleotide Exchange Assay
GDP-loaded HIS-KRAS (G12D, aa 1-169) was pre-incubated with a compound in the presence of 10 nM GDP in a 384-well plate (Greiner) for 15 min, then purified SOS1 ExD (Flag tag, aa 564-1049), BODIPY™ FL GTP (Invitrogen) and MAb (monoclonal antibody) Anti 6HIS-Tb cryptate Gold (Cisbio) were added to the assay wells (Final concentration: 1.5 nM GDP-loaded HIS-KRAS (G12D), 5 nM GDP, 0.5 μM SOS1 ExD, 80 nM BODIPY™ FL GTP, 52.5 ng/mL MAb Anti 6HIS-Tb cryptate Gold) and incubated for 4 hours at 25° C. Wells containing same percent of DMSO served as vehicle control, and wells without KRAS served as low control. TR-FRET signals were read on Tecan Spark multimode microplate reader. The parameters were F486: Excitation 340 nm, Emission 486 nm, Lag time 100 μs, Integration time 200 μs; F515: Excitation 340 nm, Emission 515 nm, Lag time 100 μs, Integration time 200 μs. TR-FRET ratios for each individual wells were calculated by equation: TR-FRET ratio=(Signal F515/Signal F486)*10000. The percent of activation of compounds treated wells were normalized between vehicle control and low control (% Activation=(TR-FRET ratioCompound treated−TR-FRET ratioLow control)/(TR-FRET ratioVehicle control−TR-FRET ratioLow control)*100%). Then the data were analyzed either by fitting a 4-parameter logistic model or by Excel to calculate IC50 values.

The target of assay [2] is T2, GppNp-loaded HIS-KRAS (G12D, aa 1-169) / cRAF RBD (Homo sapiens, UniProt P01116, G12D).
T2 construct: GppNp-loaded HIS-KRAS (G12D, aa 1-169)
T2 sequence (P01116 1-169 isoform P01116-2 G12D): as above
The assay can be described thus: GTP-KRAS and cRAF interaction assay. Format: binding. Particulars: HTRF, 2 hours at 25° C. The procedure:
2. GTP-KRAS and cRAF Interaction Assay
GppNp-loaded HIS-KRAS (G12D, aa 1-169) was pre-incubated with a compound in the presence of 200 µM GTP in a 384-well plate (Greiner) for 15 min, then cRAF RBD (GST tag, aa 50-132, CreativeBioMart), MAb Anti GST-d2 (Cisbio) and MAb Anti 6HIS-Tb cryptate Gold (Cisbio) were added to the assay wells (Final concentration: 2.0 nM GppNp-loaded HIS-KRAS (G12D), 100 μM GTP, 35 nM cRAF RBD, 1 μg/mL MAb Anti GST-d2, 52.5 ng/mL MAb Anti 6HIS-Tb cryptate Gold) and incubated for 2 hours at 25° C. Wells containing same percent of DMSO served as vehicle control, and wells without KRAS served as low control. HTRF signals were read on Tecan Spark multimode microplate reader and HTRF ratios were calculated under manufacturer's instructions. The percent of activation of compounds treated wells were normalized between vehicle control and low control (% Activation=(HTRF ratioCompound treated−HTRF ratioLow control)/(HTRF ratioVehicle control−HTRF ratioLow control)*100). Then the data were analyzed either by fitting a 4-parameter logistic model or by Excel to calculate IC50 values.
A general note: TR-FRET usually uses a lanthanide donor and a delayed reading to cut background.

Assay [3] relates to AGS cells expressing KRAS G12D. The assay can be described thus: Phospho-ERK1/2(THR202/TYR204) HTRF assay. Type of assay: cell-based. Particulars: Homo sapiens, 2 hours incubation, read-out: AGS p-ERK IC50. The procedure: AGS cells expressing KRAS G12D were cultured in F12K medium (Gibco) containing 10% fetal bovine serum (Gibco). The AGS cells in culture medium were seeded in 96-well plates at a concentration of 40,000 cells/well and then put in a 37° C./5% CO2 cell incubator to incubate overnight. The next day, culture medium was removed and the compound diluted in assay medium (F12K, 0.1% FBS) was added in each well. After 2 hours incubation in a 37° C./5% CO2 cell incubator, the assay medium in 96-well plates was removed, then 50 μL of 1× blocking reagent-supplemented lysis buffer (Cisbio) was added and the plates were incubated at 25° C. for 45 min with shaking. 10 μL of cell lysates from the 96-well plates were transferred to a 384-well plate (Greiner) containing 2.5 μL/well HTRF® pre-mixed antibodies (Cisbio 64AERPEH). Incubate 4 hours at 25° C. and then read HTRF signals on Tecan Spark multimode microplate reader. The data were analyzed using a 4-parameter logistic model to calculate IC50 values.

Molecules are shown by their SMILES. Bounds are passed on as bounds.

Turning to `C#Cc1cccc2cc(O)cc(-c3ccc4c(N5CCNC[C@H]5C)nc(OC[C@@]56CCCN5C[C@H](F)C6)nc4c3F)c12` [Compound 69], the IC50 (as a rule, the concentration that gives 50% inhibition) amounted to 1070 nM in the assay with AsPC-1, 25.1 nM in assay [1] and 781 nM in assay [2].
For `C#Cc1cccc2cc(O)cc(-c3c(SC(F)(F)F)cc4c(N5CC6CCC(C5)N6)nc(OCC5(CN6CCOCC6)CC5)nc4c3F)c12` (single isomer, unassigned) [Compound 59A], the IC50 was > 100 nM in assay [1] and > 1000 nM in assay [2].
For `Oc1cc(Cl)c(C(F)(F)F)c(-c2c(Cl)cc3c(N4CC5CCC(C4)N5)nc(OC[C@@]45CCCN4C[C@H](F)C5)nc3c2F)c1` [Compound 84], the figures for the IC50 in assay [1] and in assay [2] were 35.4 nM and 325 nM, respectively.
The molecule `C#Cc1cccc2cc(O)cc(-c3c(Cl)cc4c(N5CC6CCC(C5)N6)nc(OCC5(CN6CCOCC6)CC5)nc4c3F)c12` (single isomer, unassigned) [Compound 35A] had an IC50 in assay [1] of 651 nM.
For the molecule `C#Cc1cccc2cc(O)cc(-c3c(C)cc4c(N5CC6CCC(C5)N6)nc(OCC5(CN6CCOCC6)CC5)nc4c3F)c12` (single isomer, unassigned) [Compound 40A], the IC50 in assay [1] is 92.1 nM; in assay [2] it was 1610 nM.
Take `C#Cc1cccc2cc(O)cc(-c3ccc4c(N5C[C@H]6C[C@@H]5CN6)nc(OCC5(CN6CCOCC6)CC5)nc4c3F)c12` [Compound 54]: the results for the IC50 in assay [1] and in assay [2] were 89.8 nM and 356 nM, respectively.
The corresponding values for `C#Cc1c(F)ccc2cc(O)cc(-c3c(Cl)cc4c(N5CC6CCC(C5)N6)nc(OCC5(CN6CCOCC6)CC5)nc4c3F)c12` (single isomer, unassigned) [Compound 99B] are 0.403 nM and 13.5 nM.
Consider `C#Cc1c(F)ccc2cc(O)cc(-c3c(Cl)cc4c(N5CC6CCC(C5)N6)nc(OCC5(CN6CCOCC6)CC5)nc4c3F)c12` (single isomer, unassigned) [Compound 99A], for which the IC50 in assay [1] was found to be 101 nM; in assay [2], 2070 nM.
Taken in the same sequence, the figures for `C#Cc1cccc2cc(O)cc(-c3c(Cl)cc4c(N5CC6CCC(C5)N6)nc(OCC5(CN6CCOCC6)CC5)nc4c3Cl)c12` (single isomer, unassigned) [Compound 107A] were 783 nM and > 10000 nM.
Taken in the same sequence, the figures for `C#Cc1cccc2cc(O)cc(-c3ccc4c(N5C6CNCC5C6)nc(OCC5(CN6CCOCC6)CC5)nc4c3F)c12` [Compound 56] were 146 nM and 1910 nM.
`Oc1cc(-c2c(Cl)cc3c(N4CC5CCC(C4)N5)nc(OCC4(CN5CCOCC5)CC4)nc3c2F)c2c(Cl)cccc2c1` [Compound 37] gave an IC50 in assay [1] of 51.4 nM.
`C#Cc1cccc2cc(O)cc(-c3c(C#N)cc4c(N5CC6CCC(C5)N6)nc(OCC5(CN6CCOCC6)CC5)nc4c3F)c12` (single isomer, unassigned) [Compound 60A]: the values for the IC50 in assay [1] and in assay [2] were 766 nM and 7690 nM, respectively.
As for `C#Cc1cccc2cc(O)cc(-c3ccc4c(N5CCNC[C@H]5C)nc(OCC5(CN6CCOCC6)CC5)nc4c3F)c12` [Compound 82], in assay [2], the IC50 was > 1000 nM.
Turning to `C#Cc1c(F)ccc2cccc(-c3ccc4c(N5CC6CCC(C5)N6)nc(OCC5(CN6CCOCC6)CC5)nc4c3F)c12` [Compound 93], the IC50 in assay [1] turned out to be 93.2 nM; in assay [2], 2180 nM.
Taken in the same sequence, the figures for `CCc1cccc2cc(O)cc(-c3c(C4CC4)cc4c(N5CC6CCC(C5)N6)nc(OCC5(CN6CCOCC6)CC5)nc4c3F)c12` [Compound 39] were 322 nM and 1410 nM.
For the molecule `CCc1cccc2cc(O)cc(-c3c(Cl)cc4c(N5CC6CCC(C5)N6)nc(OCC5(CN6CCOCC6)CC5)nc4c3F)c12` [Compound 36], in assay [1], the IC50 is 32.8 nM.
With `C#Cc1cccc2cc(O)cc(-c3c(Cl)cc4c(N5CC6CCC(C5)N6)nc(OC[C@@]56CCCN5C[C@H](F)C6)nc4c3F)c12` (single isomer, unassigned) [Compound 72A], the IC50 stood at 85.9 nM in assay [1] and 1480 nM in assay [2].
As for `C#Cc1cccc2cc(O)cc(-c3c(F)cc4c(N5CC6CCC(C5)N6)nc(OCC5(CN6CCOCC6)CC5)nc4c3F)c12` (single isomer, unassigned) [Compound 41A], the IC50 in assay [1] was 120 nM; in assay [2], 417 nM.
For the molecule `Oc1cc(-c2c(Cl)cc3c(N4CC5CCC(C4)N5)nc(OCC4(CN5CCOCC5)CC4)nc3c2F)c2cccc(F)c2c1` [Compound 92], the figures for the half-inhibitory concentration (IC50) in assay [1] and in assay [2] were 152 nM and 3960 nM, respectively.
The corresponding values for `C#Cc1cccc2cc(O)cc(-c3c(C4CC4)cc4c(N5CC6CCC(C5)N6)nc(OCC5(CN6CCOCC6)CC5)nc4c3F)c12` (single isomer, unassigned) [Compound 38A] are ~1000 nM and 8300 nM.
As for `Oc1cc(Cl)c(C(F)(F)F)c(-c2ccc3c(N4CC5CCC(C4)N5)nc(OC[C@@]45CCCN4C[C@H](F)C5)nc3c2F)c1` [Compound 85], the 50% inhibitory concentration (IC50) in assay [1] turned out to be 69.1 nM; in assay [2] it was 2210 nM.
Consider `Oc1cc(-c2ccc3c(N4CC5CCC(C4)N5)nc(OCC4(CN5CCOCC5)CC4)nc3c2F)c2cccc(F)c2c1` [Compound 50], for which the IC50 stood at 441 nM in assay [3], 56.9 nM in assay [1] and 1110 nM in assay [2].
For `C#Cc1cccc2cc(O)cc(-c3ccc4c(N5CCNCC5CC#N)nc(OCC5(CN6CCOCC6)CC5)nc4c3F)c12` (racemic) [Compound 134], the IC50 in assay [1] turned out to be 117 nM; in assay [2], 760 nM.
On to `C#Cc1cccc2cc(O)cc(-c3ccc4c(N5C6CCC5CNC6)nc(OC[C@@]56CCCN5C[C@H](F)C6)nc4c3F)c12` [Compound 70], for which the IC50 with AsPC-1 was found to be 140 nM; in assay [1], 8.43 nM; in assay [2], 59.1 nM.
In the case of `C#Cc1cccc2cc(O)cc(-c3ccc4c(N5[C@H]6CN[C@H](C6)[C@H]5CC#N)nc(OCC5(CN6CCOCC6)CC5)nc4c3F)c12` [Compound 128], the half-inhibitory concentration (IC50) in assay [1] is > 100 nM; in assay [2], 519 nM.
For `Oc1cc(-c2c(Cl)cc3c(N4CC5CCC(C4)N5)nc(OCC4(CN5CCOCC5)CC4)nc3c2F)c2c(F)cccc2c1` [Compound 53], the IC50 in assay [3] was 99.6 nM; in assay [1], 57.1 nM; in assay [2], 853 nM.

The record behind these values is patent US20240059710A1, “KRAS G12D Inhibitors” (Jacobio Pharmaceuticals Co., Ltd., priority 2020, published 2024).
